Reference: patent US8729081B2, “Compositions and methods for treating alcohol use disorders, pain and other diseases” (VM Discovery Inc., priority 2008, dated 2014)
pIC50: −log10 of the molar value.

Columns and labels:
Assay type in all cases: biochemical
[1] = target: T1, PKCε (Homo sapiens, UniProt Q02156); experiment: Kinetic analysis of PKCε inhibition (initial velocity vs ATP, Lineweaver-Burk)
T1 construct: host or cells: insect cells
Experimental: FIG. 1. […] (A) Initial velocity (Vi) plotted against ATP concentration at various concentrations of the compound plus vehicle control.
The above in vitro assay can also be used to measure the initial velocity of the kinase reaction, varying the concentrations of ATP (1-60 μM) or S25 peptide substrate (1-500 nM). Values for km and Vmax are calculated for drug- and vehicle-treated samples by linear regression analysis of double reciprocal Lineweaver Burke plots (see Examples).

[2] = target: T2, PDPK1 (Homo sapiens, UniProt O15530); experiment: Kinase profiling
T2 construct: purchased Reaction Biology Corp
Experimental: [The procedure below names another target; the source lists this target under the same test.] (§1) Kinase profiling was performed using HotSpot technology (Reaction Biology Corp. 11 Malvern, Pa., USA). This technology is a radioisotope-based P81 filter-binding assay. Compound of the present invention were dissolved in pure DMSO to make a 10 mM stock, then diluted in pure DMSO to make a serial dilution based on the IC50 ranges. PKCε (h) (0.4 nM, human recombinant protein expressed in insect cells. Mw=83.7 kDa) and substrate (20 μM peptide substrate, [RFARKGSLRQKNV]) were diluted in the reaction buffer (20 mM HEPES-HCl, pH 7.5, 10 mM MgCl2, 1 mM EGTA, 0.02% Brij35, 0.1 mM Na3VO4, 0.02 mg/ml BSA, 2 mM DTT, and 1% DMSO), and then 5 nL of compound was delivered into PKCε (h) and substrate mixture by acoustic technology using Echo 550 (LabCyte Inc., Sunnyvale, Calif.). The reaction was initiated by the addition of [γ-33P-ATP] into the reaction mixture (final concentration was 10 μM) and stopped after at least 40 min incubation at room temperature. The unreacted free 33P-ATP was washed away before detection.

[3] = target: T3, RSK1 (Homo sapiens, UniProt Q15418); experiment: Kinase profiling
T3 construct: purchased Reaction Biology Corp
Experimental: [The procedure below names another target; the source lists this target under the same test.] as §1

[4] = target: T4, FYN (Homo sapiens, UniProt P06241); experiment: Kinase profiling
T4 construct: purchased Reaction Biology Corp
Experimental: [The procedure below names another target; the source lists this target under the same test.] as §1

[5] = target: T5, PKA (Homo sapiens, UniProt P17612); experiment: Kinase profiling
T5 construct: purchased Reaction Biology Corp
Experimental: [The procedure below names another target; the source lists this target under the same test.] as §1

[6] = target: T6, cMET (Homo sapiens, UniProt P08581); experiment: Kinase profiling
T6 construct: purchased Reaction Biology Corp
Experimental: [The procedure below names another target; the source lists this target under the same test.] as §1

[7] = target: T7, PKCeta (Homo sapiens, UniProt P24723); experiment: Kinase profiling
T7 construct: purchased Reaction Biology Corp
Experimental: [The procedure below names another target; the source lists this target under the same test.] as §1

[8] = target: T8, PKCdelta (Homo sapiens, UniProt Q05655); experiment: Kinase profiling
T8 construct: purchased Reaction Biology Corp
Experimental: [The procedure below names another target; the source lists this target under the same test.] as §1

[9] = target: T9, CDK1/cyclinB (Homo sapiens, UniProt P06493); experiment: Kinase profiling
T9 construct: purchased Reaction Biology Corp
T9 sequence (P06493 whole entry): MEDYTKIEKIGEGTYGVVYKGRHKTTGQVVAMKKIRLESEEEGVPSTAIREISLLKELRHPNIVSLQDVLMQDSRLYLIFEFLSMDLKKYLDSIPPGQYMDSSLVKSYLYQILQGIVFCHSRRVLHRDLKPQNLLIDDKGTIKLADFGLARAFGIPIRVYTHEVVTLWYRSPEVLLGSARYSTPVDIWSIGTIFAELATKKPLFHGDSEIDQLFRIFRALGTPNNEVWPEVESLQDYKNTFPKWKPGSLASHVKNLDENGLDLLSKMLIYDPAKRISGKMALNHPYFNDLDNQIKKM
T9 sequence (P14635 whole entry partner): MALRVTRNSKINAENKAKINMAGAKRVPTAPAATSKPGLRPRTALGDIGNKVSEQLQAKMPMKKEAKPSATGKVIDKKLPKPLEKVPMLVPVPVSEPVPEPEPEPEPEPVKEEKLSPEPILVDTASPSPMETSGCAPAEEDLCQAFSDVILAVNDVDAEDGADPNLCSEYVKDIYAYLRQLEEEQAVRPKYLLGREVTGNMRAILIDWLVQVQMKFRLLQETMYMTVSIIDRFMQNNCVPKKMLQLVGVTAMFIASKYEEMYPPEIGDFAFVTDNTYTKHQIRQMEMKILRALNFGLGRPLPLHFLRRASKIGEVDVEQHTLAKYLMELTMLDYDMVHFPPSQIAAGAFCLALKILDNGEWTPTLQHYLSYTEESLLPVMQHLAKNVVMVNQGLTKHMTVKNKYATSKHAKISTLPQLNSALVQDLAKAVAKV
Experimental: [The procedure below names another target; the source lists this target under the same test.] as §1

[10] = target: T10, PKCmu (Homo sapiens, UniProt Q15139); experiment: Kinase profiling
T10 construct: purchased Reaction Biology Corp
Experimental: [The procedure below names another target; the source lists this target under the same test.] as §1

[11] = target: T11, Akt1 (Homo sapiens, UniProt P31749); experiment: Kinase profiling
T11 construct: purchased Reaction Biology Corp
Experimental: [The procedure below names another target; the source lists this target under the same test.] as §1

[12] = target: T12, CAMKIIa_alpha (Homo sapiens, UniProt Q9UQM7); experiment: Kinase profiling
T12 construct: purchased Reaction Biology Corp
T12 sequence (Q9UQM7 whole entry): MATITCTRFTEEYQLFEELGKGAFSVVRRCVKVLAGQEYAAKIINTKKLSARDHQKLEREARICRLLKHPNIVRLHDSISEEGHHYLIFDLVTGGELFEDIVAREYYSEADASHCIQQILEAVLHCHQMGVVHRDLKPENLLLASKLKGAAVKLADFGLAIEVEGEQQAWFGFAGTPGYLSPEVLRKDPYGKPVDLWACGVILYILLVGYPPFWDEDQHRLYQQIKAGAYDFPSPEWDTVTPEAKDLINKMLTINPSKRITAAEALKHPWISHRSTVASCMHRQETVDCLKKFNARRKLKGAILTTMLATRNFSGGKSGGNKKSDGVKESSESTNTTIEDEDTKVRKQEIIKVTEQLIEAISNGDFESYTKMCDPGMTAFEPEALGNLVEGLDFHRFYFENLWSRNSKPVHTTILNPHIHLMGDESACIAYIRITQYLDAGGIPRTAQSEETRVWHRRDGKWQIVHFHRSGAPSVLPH
Experimental: [The procedure below names another target; the source lists this target under the same test.] as §1

[13] = target: T13, PKCiota (Homo sapiens, UniProt P41743); experiment: Kinase profiling
T13 construct: purchased Reaction Biology Corp
T13 sequence (P41743 whole entry): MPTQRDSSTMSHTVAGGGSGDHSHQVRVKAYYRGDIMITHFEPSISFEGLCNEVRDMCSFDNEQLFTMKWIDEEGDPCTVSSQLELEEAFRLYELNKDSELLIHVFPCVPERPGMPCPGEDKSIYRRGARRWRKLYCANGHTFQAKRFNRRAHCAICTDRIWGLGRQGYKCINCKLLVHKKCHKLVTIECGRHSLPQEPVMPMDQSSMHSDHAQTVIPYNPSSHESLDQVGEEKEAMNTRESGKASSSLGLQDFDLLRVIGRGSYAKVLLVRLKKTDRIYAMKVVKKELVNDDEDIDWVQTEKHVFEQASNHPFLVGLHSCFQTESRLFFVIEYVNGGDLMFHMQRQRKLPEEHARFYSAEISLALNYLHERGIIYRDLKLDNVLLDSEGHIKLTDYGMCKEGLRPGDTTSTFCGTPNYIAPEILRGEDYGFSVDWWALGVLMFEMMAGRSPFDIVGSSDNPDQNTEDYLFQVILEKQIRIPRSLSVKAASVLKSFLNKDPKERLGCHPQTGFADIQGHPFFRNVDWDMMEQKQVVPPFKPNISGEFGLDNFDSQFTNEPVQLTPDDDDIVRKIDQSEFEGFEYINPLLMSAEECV
Experimental: [The procedure below names another target; the source lists this target under the same test.] as §1

[14] = target: T14, MEK1 (Homo sapiens, UniProt Q02750); experiment: Kinase profiling
T14 construct: purchased Reaction Biology Corp
T14 sequence (Q02750 whole entry): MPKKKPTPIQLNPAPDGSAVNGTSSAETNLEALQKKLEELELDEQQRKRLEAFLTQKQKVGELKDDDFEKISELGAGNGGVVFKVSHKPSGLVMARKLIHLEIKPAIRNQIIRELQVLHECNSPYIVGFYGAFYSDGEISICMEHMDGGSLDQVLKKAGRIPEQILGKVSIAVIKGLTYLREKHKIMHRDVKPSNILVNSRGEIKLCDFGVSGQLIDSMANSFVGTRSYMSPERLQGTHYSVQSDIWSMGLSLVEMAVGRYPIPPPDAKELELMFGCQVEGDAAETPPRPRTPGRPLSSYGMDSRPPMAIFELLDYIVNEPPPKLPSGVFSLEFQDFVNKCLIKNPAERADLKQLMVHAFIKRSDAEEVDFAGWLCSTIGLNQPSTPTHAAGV
Experimental: [The procedure below names another target; the source lists this target under the same test.] as §1

[15] = target: T15, PKCtheta (Homo sapiens, UniProt Q04759); experiment: Kinase profiling
T15 construct: purchased Reaction Biology Corp
Experimental: [The procedure below names another target; the source lists this target under the same test.] as §1

[16] = target: T16, ROCK1 (Homo sapiens, UniProt Q13464); experiment: Kinase profiling
T16 construct: purchased Reaction Biology Corp
T16 sequence (Q13464 whole entry): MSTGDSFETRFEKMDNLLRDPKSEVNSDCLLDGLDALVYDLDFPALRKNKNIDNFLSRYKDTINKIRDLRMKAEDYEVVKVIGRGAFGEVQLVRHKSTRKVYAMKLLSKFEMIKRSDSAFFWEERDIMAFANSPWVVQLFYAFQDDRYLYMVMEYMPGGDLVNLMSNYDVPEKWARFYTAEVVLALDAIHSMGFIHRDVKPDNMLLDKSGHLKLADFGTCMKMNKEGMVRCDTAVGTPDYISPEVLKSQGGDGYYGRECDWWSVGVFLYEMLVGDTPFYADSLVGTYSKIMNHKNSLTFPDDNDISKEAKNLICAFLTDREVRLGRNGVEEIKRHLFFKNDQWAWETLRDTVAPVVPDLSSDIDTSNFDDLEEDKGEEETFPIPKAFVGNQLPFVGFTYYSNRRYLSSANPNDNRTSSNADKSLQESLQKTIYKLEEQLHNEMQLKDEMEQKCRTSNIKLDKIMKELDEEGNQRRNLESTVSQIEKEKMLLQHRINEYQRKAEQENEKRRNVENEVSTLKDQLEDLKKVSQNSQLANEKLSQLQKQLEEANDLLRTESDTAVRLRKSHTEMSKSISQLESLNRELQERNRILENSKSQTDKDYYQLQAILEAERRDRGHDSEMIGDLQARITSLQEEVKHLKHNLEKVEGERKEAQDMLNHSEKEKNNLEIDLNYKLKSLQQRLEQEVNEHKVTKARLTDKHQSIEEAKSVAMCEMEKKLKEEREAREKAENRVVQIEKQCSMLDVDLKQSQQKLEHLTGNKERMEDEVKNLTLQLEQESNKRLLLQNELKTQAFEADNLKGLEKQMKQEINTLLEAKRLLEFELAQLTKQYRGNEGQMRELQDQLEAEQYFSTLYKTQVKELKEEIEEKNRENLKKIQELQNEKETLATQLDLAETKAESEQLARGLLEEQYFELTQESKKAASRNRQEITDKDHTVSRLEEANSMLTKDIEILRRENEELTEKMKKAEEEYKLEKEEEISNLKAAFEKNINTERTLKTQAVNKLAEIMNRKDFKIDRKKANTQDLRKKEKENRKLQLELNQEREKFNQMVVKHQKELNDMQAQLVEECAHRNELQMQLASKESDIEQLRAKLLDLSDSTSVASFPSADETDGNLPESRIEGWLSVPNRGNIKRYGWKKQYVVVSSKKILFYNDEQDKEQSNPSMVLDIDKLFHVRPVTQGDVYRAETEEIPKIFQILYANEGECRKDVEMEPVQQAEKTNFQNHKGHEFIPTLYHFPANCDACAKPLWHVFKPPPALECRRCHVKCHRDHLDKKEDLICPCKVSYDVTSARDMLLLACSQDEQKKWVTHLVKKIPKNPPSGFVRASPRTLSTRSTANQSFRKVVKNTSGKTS
Experimental: [The procedure below names another target; the source lists this target under the same test.] as §1

[17] = target: T17, PKCbeta1 (Homo sapiens, UniProt P05771); experiment: Kinase profiling
T17 construct: purchased Reaction Biology Corp
Experimental: [The procedure below names another target; the source lists this target under the same test.] as §1

[18] = target: T18, PKCzeta (Homo sapiens, UniProt Q05513); experiment: Kinase profiling
T18 construct: purchased Reaction Biology Corp
Experimental: [The procedure below names another target; the source lists this target under the same test.] as §1

[19] = target: T19, TrkA (Homo sapiens, UniProt P04629); experiment: Kinase profiling
T19 construct: purchased Reaction Biology Corp
Experimental: [The procedure below names another target; the source lists this target under the same test.] as §1

[20] = target: T20, PKCbeta2 (Homo sapiens, UniProt P05771); experiment: Kinase profiling
T20 construct: purchased Reaction Biology Corp
T20 sequence (P05771 1-673 isoform P05771-2): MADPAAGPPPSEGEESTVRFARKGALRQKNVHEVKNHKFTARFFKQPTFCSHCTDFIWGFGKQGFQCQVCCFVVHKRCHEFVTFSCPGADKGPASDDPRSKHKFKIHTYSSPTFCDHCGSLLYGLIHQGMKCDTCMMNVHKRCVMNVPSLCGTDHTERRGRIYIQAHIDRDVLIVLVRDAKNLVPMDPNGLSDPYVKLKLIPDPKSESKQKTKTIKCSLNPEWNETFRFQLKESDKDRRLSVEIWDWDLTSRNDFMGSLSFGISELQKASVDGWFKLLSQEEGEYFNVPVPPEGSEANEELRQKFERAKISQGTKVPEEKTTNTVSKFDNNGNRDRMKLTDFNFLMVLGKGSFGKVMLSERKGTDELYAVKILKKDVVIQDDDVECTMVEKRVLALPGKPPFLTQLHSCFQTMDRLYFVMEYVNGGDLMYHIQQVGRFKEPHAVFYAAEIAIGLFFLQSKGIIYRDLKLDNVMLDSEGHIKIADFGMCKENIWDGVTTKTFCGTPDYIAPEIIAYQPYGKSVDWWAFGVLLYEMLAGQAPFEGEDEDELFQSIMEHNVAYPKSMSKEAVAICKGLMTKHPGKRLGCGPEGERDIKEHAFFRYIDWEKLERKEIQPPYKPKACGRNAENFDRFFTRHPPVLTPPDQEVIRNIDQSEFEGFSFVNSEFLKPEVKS
Experimental: [The procedure below names another target; the source lists this target under the same test.] as §1

[21] = target: T21, PKCgamma (Homo sapiens, UniProt P05129); experiment: Kinase profiling
T21 construct: purchased Reaction Biology Corp
Experimental: [The procedure below names another target; the source lists this target under the same test.] as §1

[22] = target: T22, PKCalpha (Homo sapiens, UniProt P17252); experiment: Kinase profiling
T22 construct: purchased Reaction Biology Corp
Experimental: [The procedure below names another target; the source lists this target under the same test.] as §1

T1 sequence (Q02156 whole entry): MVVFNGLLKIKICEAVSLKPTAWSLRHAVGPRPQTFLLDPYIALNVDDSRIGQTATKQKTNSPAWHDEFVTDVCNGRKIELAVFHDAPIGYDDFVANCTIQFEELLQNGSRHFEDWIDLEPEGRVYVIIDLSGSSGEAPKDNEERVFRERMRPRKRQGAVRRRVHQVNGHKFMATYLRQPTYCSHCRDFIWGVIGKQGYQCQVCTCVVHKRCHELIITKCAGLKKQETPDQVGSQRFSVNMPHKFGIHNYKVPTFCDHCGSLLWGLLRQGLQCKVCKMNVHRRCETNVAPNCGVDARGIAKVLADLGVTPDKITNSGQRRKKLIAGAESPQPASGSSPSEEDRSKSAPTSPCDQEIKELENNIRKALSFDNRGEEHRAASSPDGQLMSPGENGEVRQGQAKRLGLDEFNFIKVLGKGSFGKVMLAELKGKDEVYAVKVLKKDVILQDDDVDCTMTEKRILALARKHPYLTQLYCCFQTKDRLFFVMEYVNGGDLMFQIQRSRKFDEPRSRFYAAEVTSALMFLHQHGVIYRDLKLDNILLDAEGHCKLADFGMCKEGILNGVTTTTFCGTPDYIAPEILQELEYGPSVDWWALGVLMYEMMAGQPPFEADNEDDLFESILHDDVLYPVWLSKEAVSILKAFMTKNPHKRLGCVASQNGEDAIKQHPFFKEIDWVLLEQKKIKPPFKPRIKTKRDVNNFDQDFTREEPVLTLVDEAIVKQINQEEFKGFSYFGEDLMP

mode of PKCε inhibition with respect to ATP ([1]; FIG. 1, kinetic analysis): non-competitively with ATP
Vmax and km in Lineweaver-Burk double reciprocal plot ([1]; FIG. 1B, various compound concentrations plus vehicle control (4 conditions)): differences in Vmax but not in km
pIC50 [2]: < 4.70
pIC50 [3]: < 4.70
pIC50 [4]: < 4.70
pIC50 [5]: < 4.70
pIC50 [6]: < 4.70
pIC50 [7]: < 4.70
pIC50 [8]: < 4.70
pIC50 [9]: < 4.70
pIC50 [10]: < 4.70
pIC50 [11]: < 4.70
pIC50 [12]: < 4.70
pIC50 [13]: < 4.70
pIC50 [14]: < 4.70
pIC50 [15]: < 4.70
pIC50 [16]: < 4.70
pIC50 [17]: < 4.70
pIC50 [18]: < 4.70
pIC50 [19]: < 4.70
pIC50 [20]: < 4.70
pIC50 [21]: < 4.70
pIC50 [22]: < 4.70
SMILES: O=C(NCCCN1CCCC1)c1ccc(/C=C2\Sc3ccccc3N(Cc3ccccc3F)C2=O)cc1 [Compound 481, 4-{(Z/E)-[4-(2-fluorobenzyl)-3-oxo-3,4-dihydro-2H-1,4-benzothiazin-2-ylidene]methyl}-N-[3-(pyrrolidin-1-yl)propyl]benzamide]
